Experimental data as given in PubChem BioAssay AID623973 (The Scripps Research Institute Molecular Screening Center, 2012).
Calls of active or inactive are those of the source. No rule for the calls is given here.

Biological target: Hepatitis C virus NS3 helicase (ATPase activity)
Assay: HCV NS3 ATP hydrolysis blockers – biochemical, absorbance, mechanism study for HCV NS3 helicase inhibitor project, late-stage follow-up (AID 623973)
Conditions: absorbance phosphate detection

Compound | IC50
Cc1ccc2nc(-c3ccc4nc(-c5ccc(NC(=O)c6ccc(F)cc6)cc5)sc4c3)sc2c1S(=O)(=O)O | 67 µM
Cc1ccc2nc(-c3ccc4nc(-c5ccc6nc(-c7ccc8nc(-c9ccc(N)cc9)sc8c7)sc6c5)sc4c3)sc2c1S(=O)(=O)O | 43 µM
Cc1ccc2nc(-c3ccc4nc(-c5ccc(NC(=O)c6ccc(C(F)(F)F)cc6)cc5)sc4c3)sc2c1S(=O)(=O)O | 24 µM
Cc1ccc2nc(-c3ccc4nc(-c5ccc(NC(=O)c6ccc(Br)cc6)cc5)sc4c3)sc2c1S(=O)(=O)O | 50 µM
Cc1ccc(C(=O)Nc2ccc(-c3nc4ccc(-c5nc6ccc(C)c(S(=O)(=O)O)c6s5)cc4s3)cc2)cc1 | 33 µM
Cc1ccc2nc(-c3ccc4nc(-c5ccc(NC(=O)c6cccnc6)cc5)sc4c3)sc2c1S(=O)(=O)O | > 200 µM (inactive)
Cc1ccc2c(sc(-c3ccc4c(c3)sc(-c3ccc5c(c3)sc(-c3ccc(N(C)C)cc3)[n+]5C)[n+]4C)[n+]2C)c1S(=O)(=O)O (tested in a mixture with another compound) | > 200 µM (inactive)
Cc1ccc2nc(-c3ccc(N)cc3)sc2c1S(=O)(=O)O | > 200 µM (inactive)
COc1cccc2c(=O)c3cc(Cl)cc(C(=O)Nc4cc(Cl)ccn4)c3[nH]c12 | > 200 µM (inactive)
Cc1ccc2nc(-c3ccc4nc(-c5ccc(NC(=O)Nc6ccc(Cl)cc6)cc5)sc4c3)sc2c1S(=O)(=O)O | 86 µM
Cc1ccc2nc(-c3ccc4nc(-c5ccc(N)cc5)sc4c3)sc2c1S(=O)(=O)O | > 200 µM (inactive)
Cc1ccc2nc(-c3ccc4nc(-c5ccc(NC(=O)c6cc(C(F)(F)F)ccc6F)cc5)sc4c3)sc2c1S(=O)(=O)O | 61 µM
Cc1ccc2nc(-c3ccc4nc(-c5ccc(NC(=O)c6cc(C(F)(F)F)cc(C(F)(F)F)c6)cc5)sc4c3)sc2c1S(=O)(=O)O | inactive
Cc1ccc2nc(-c3ccc4nc(-c5ccc(NC(=O)c6ccc7ccccc7c6)cc5)sc4c3)sc2c1S(=O)(=O)O | 30 µM
CN1CCN(Cc2cc(CN3CCN(C)CC3)c(O)c(=O)c(CN3CCN(C)CC3)c2)CC1 | > 200 µM (inactive)
Cc1ccc2nc(-c3ccc4nc(-c5ccc(NC(=O)c6cccc(Cl)c6)cc5)sc4c3)sc2c1S(=O)(=O)O | 74 µM

Compound | IC50
Cc1ccc2nc(-c3ccc4nc(-c5ccc(NC(=O)c6ccc7nc(-c8ccc(N)cc8)sc7c6)cc5)sc4c3)sc2c1S(=O)(=O)O | > 200 µM (inactive)
Cc1ccc2nc(-c3ccc4nc(-c5ccc(NC(=O)Nc6ccccc6)cc5)sc4c3)sc2c1S(=O)(=O)O | 70 µM
CCOc1ccc2c(NNC(=O)c3cnccn3)c3c(nc2c1)CCCC3 | > 200 µM (inactive)
CCN(CC)c1ccc(-c2nc3ccc(C)c(S(=O)(=O)O)c3s2)cc1 | > 200 µM (inactive)
Cc1cc2sc(-c3ccc(N)cc3)nc2cc1S(=O)(=O)O | > 200 µM (inactive)
Cc1ccc2nc(-c3ccc4nc(-c5ccc(NC(=O)c6ccc(N)cc6)cc5)sc4c3)sc2c1S(=O)(=O)O | inactive
Cc1ccc2nc(-c3ccc4nc(-c5ccc(NC(=O)c6ccc(C(C)(C)C)cc6)cc5)sc4c3)sc2c1S(=O)(=O)O | inactive
COc1ccc(C(=O)Nc2ccc(-c3nc4ccc(-c5nc6ccc(C)c(S(=O)(=O)O)c6s5)cc4s3)cc2)cc1 | 50 µM
Cc1ccc2nc(-c3ccc4nc(-c5ccc(NC(=O)c6ccc(Cl)c(Cl)c6)cc5)sc4c3)sc2c1S(=O)(=O)O | 44 µM
CCN(CC)c1ccc(-c2nc3ccc(-c4nc5ccc(C)c(S(=O)(=O)O)c5s4)cc3s2)cc1 | > 200 µM (inactive)
Cc1ccc2nc(-c3ccc(NC(=O)c4ccc(NC(=O)Nc5ccccc5)cc4)cc3)sc2c1S(=O)(=O)O | > 200 µM (inactive)
O=C(CCCCCCC(=O)Nc1ccc(-c2nc3ccccc3[nH]2)cc1)Nc1ccc(-c2nc3ccccc3[nH]2)cc1 | > 200 µM (inactive)
Cc1cc2sc(-c3ccc4nc(-c5ccc(N)cc5)sc4c3)nc2cc1S(=O)(=O)O | > 200 µM (inactive)
COc1ccc(NC(=O)Nc2ccc(-c3nc4ccc(-c5nc6ccc(C)c(S(=O)(=O)O)c6s5)cc4s3)cc2)cc1 | 73 µM
Cc1cc(C(O)(c2ccc(Nc3ccccc3)cc2)c2ccc(Nc3ccc(S(=O)(=O)O)cc3)cc2)ccc1N (stereo unspecified) | > 200 µM (inactive)
